Two molecules from patent US20250041277A1, “METHODS AND DOSING REGIMENS COMPRISING A CDK2 INHIBITOR AND A CDK4 INHIBITOR FOR TREATING CANCER” (PFIZER INC., priority 2021, published 2025) can be followed below.

SMILES strings stand for the structures. Several values for one entry are separate records, joined by “and”; a condition that tells them apart may be missing. Equal entries are not always repeated.

The subject of experiment [1] is ST941 PBR PDX model. Put plainly: In vivo efficacy, palbociclib-resistant ST941 PBR PDX model (Example 3). Also on record: species or system NSG mice. As to conditions: ST941PBR, Day 28; PO BID: PF-07104091 150 mpk, PF-07220060 60 mpk, palbociclib 10 mpk; fulvestrant 10 mpk SC 2x week 1 then weekly. The method, then:
(§1) Female NSG mice (Jackson Lab) were subcutaneously implanted with fragment (27 mm^3 to 64 mm^3 size) into the dorsal region. All mice for T47D, HCC1428 and ST941 PBR studies were supplemented with 8.5 μg/mL estradiol water (β-Estradiol Sigma-Aldrich, cat #E2758-5G) and gave ad libitum till end of study. For the in vivo efficacy studies, tumor volume and body weights were measured twice a week. Tumor volume was calculated using the [(Length×Width×Width)/2)] formula. TGI was calculated as 100*(1−ΔT/ΔC). The ΔC (ΔT) was obtained by subtracting the mean tumor burden in the vehicle (treated) group on the first day of treatment (Day 0) from the mean tumor burden in vehicle (treated) group on the assessment day. Statistical analysis was performed using ANCOVA when the mean tumor volume in vehicle treated mice reached tumor cutoff size.
(§2) We established model in house by continuous treatment of the ST941 PBR tumor bearing mice with PD-0332991 at 50 mg/kg, PO QD plus fulvestrant at 10 mg/kg, SC twice in the first week, then weekly thereafter. To propagate donors for the TGI study, tumors were transplanted to recipient mice. One week after the re-implantation, the recipient mice received continuous treatment with palbociclib plus fulvestrant (dosing schedule described above). After 1 to 2 serial in vivo propagation with the same treatment regimen, the resistant tumors in the range of 700 to 800 mm^3 were re-implanted for a study expansion. The remaining tumor fragments were viably frozen for future use.
The live donor mice were established by implanting ST941 PBR (p11) tumor fragments. Once reaching a range of 700 to 800 mm^3, the donor tumors were subsequently transplanted into secondary recipient mice for a study expansion. To maintain the resistant clones, the ST941 PBR tumor bearing mice were treated with PD-0332991 at 50 mg/kg, PO. QD plus fulvestrant at 10 mg/kg, SC twice in the first week, then weekly afterwards for 10 weeks. The treatment was initiated one week after the implant until day of randomization for study enrollment. […] TGI was assessed on Day 28 post first dose.

In experiment [2] the test system is ST941 PBR PDX model. The experiment can be described thus: In vivo efficacy, palbociclib-resistant ST941 PBR PDX model (Example 4). Details: species or system NSG mice. To be noted: ST941PBR, Day 28; PO BID: PF-07104091 120 mpk, PF-07220060 60 mpk, PF-06873600 30 mpk, palbociclib 10 mpk; fulvestrant 10 mpk SC. The protocol: as §1, with “HCC1428, MCF7” for “T47D, HCC1428”
as §2
The live donor mice were established by implanting ST941 PBR (p13) tumor fragments. Once reaching a range of 700 to 800 mm^3, the donor tumors were subsequently transplanted into secondary recipient mice for a study expansion. To maintain the resistant clones, the ST941 PBR tumor bearing mice were treated with PD-0332991 at 50 mg/kg, PO. QD plus fulvestrant at 10 mg/kg, SC twice in the first week, then weekly afterwards for 10 weeks. The treatment was initiated one week after the implant until day of randomization for study enrollment. […] PF-07104091 (lot 021), PF-07220060 (lot CPo126812-01-SY-5700-01), PF-06873600 (lot 022) and PD-0332991 (lot GR08498) were administered (PO) BID (7 hr apart) while fulvestrant (lot 20160224-2) at 10 mg/kg, SC twice in the first week, then weekly afterwards. All mice received treatment continuously until Day 28. TGI was assessed on Day 28 post first dose.

Experiment [3] has as its system H23. Put plainly: Combinatorial activity in LUAD cell line H23. It is filed as cell-based. To be noted: Homo sapiens, NCI-H23; H23, KRAS G12C; single agent; read-out: (nM) s.a. The protocol: (§3) Combinatorial activity of PF-07104091 and PF-07220060 was assessed in LUADs as single agents (s.a.) or in combination.
The subject of experiment [4] is H1792. Put plainly: Combinatorial activity in LUAD cell line H1792. It counts as cell-based. To be noted: Homo sapiens, NCI-H1792; H1792, KRAS G12C; single agent; read-out: (nM) s.a. The protocol:
as §3

Experiment [5] concerns H358. Put plainly: Combinatorial activity in LUAD cell line H358. It is filed as cell-based. As to conditions: Homo sapiens, NCI-H358; H358, KRAS G12C; single agent; read-out: (nM) s.a. The protocol: as §3
In experiment [6] the test system is H2030. The experiment can be described thus: Combinatorial activity in LUAD cell line H2030. It counts as cell-based. As to conditions: Homo sapiens, NCI-H2030; H2030, KRAS G12C; single agent; read-out: (nM) s.a. The protocol: as §3
The subject of experiment [7] is HCC44 (RB-). The experiment can be described thus: Combinatorial activity in LUAD cell line HCC44. To be noted: Homo sapiens, KRAS G12C, single agent, read-out: (nM) s.a. It counts as cell-based. The method, then:
as §3

For experiment [8], the system named is SW1573. The experiment can be described thus: Combinatorial activity in LUAD cell line SW1573. It is filed as cell-based. To be noted: Homo sapiens; SW1573, KRAS G12C; single agent; read-out: (nM) s.a. The method, then:
as §3

The subject of experiment [9] is H1373. Put plainly: Combinatorial activity in LUAD cell line H1373. It is filed as cell-based. As to conditions: Homo sapiens, NCI-H1373; H1373, KRAS G12C; single agent; read-out: (nM) s.a. The protocol:
as §3

In experiment [10] the test system is NCI-2291. Put plainly: Combinatorial activity in LUAD cell line NCI-2291. It counts as cell-based. As to conditions: NCI-2291, KRAS G12C/F/V; single agent; read-out: (nM) s.a. The method, then:
as §3

For experiment [11], the system named is NCIH1944. Put plainly: Combinatorial activity in LUAD cell line NCIH1944. It counts as cell-based. To be noted: Homo sapiens, NCI-H1944; NCIH1944, KRAS G13D; single agent; read-out: (nM) s.a. The method, then: as §3

Take `CC(C)n1c(C(C)(C)O)nc2c(F)cc(-c3nc(N[C@@H]4CCOC[C@H]4O)ncc3Cl)cc21` [PF-07220060, 1,5-anhydro-3-({5-chloro-4-[4-fluoro-2-(2-hydroxypropan-2-yl)-1-(propan-2-yl)-1H-benzimidazol-6-yl]pyrimidin-2-yl}amino)-2,3-dideoxy-D-threo-pentitol]: the TGI % in [1] is on record as 28%; in experiment [2] it was 19%. The IC50 in experiment [3] was 285 nM; in experiment [4], 210 nM; in experiment [5] it was 120 nM; in [6], 950 nM; in [7], greater than 1000 nM; in experiment [8], greater than 1000 nM. The IC50 in [9] worked out at 470 nM; in experiment [10], 138 nM; in experiment [11], 398 nM.
Turning to `COCc1cc(C(=O)Nc2cc([C@H]3CC[C@@H](OC(=O)NC(C)C)C3)[nH]n2)n(C)n1` [PF-07104091, (1R,3S)-3-[3-({[3-(methoxymethyl)-1-methyl-1H-pyrazol-5-yl]carbonyl}amino)-1H-pyrazol-5-yl]cyclopentyl propan-2-ylcarbamate], the TGI % in experiment [1] is 34% and 24^* %; in experiment [2], 36%. Further, the IC50 was roughly 1200 nM in experiment [10] and 227 nM in experiment [11].
